From ChEMBL document CHEMBL3797123, “Amino(oxo)acetate moiety: A new functional group to improve the cytotoxicity of betulin derived carbamates” (Bioorg Med Chem Lett, 2016)

Legend:
Type in all cases: functional, cell-based
[1] = Cytotoxicity against human 518A2 cells after 96 hrs by SRB assay; conditions: 518A2, 96 h
[2] = system: A2780; experiment: Cytotoxicity against human A2780 cells after 96 hrs by SRB assay; conditions: A2780, 96 h
[3] = system: HT-29; experiment: Cytotoxicity against human HT-29 cells after 96 hrs by SRB assay; conditions: HT-29, 96 h
[4] = system: MCF7; experiment: Cytotoxicity against human MCF7 cells after 96 hrs by SRB assay; conditions: MCF7, 96 h
[5] = system: A549; experiment: Cytotoxicity against human A549 cells after 96 hrs by SRB assay; conditions: A549, 96 h
[6] = system: HeLa; experiment: Cytotoxicity against human HeLa cells after 96 hrs by SRB assay

SMILES	EC50 [1] [µM]	EC50 [2] [µM]	EC50 [3] [µM]	EC50 [4] [µM]	EC50 [5] [µM]	EC50 [6] [µM]
C=C(C)[C@@H]1CC[C@]2(CO)CC[C@]3(C)[C@H](CC[C@@H]4[C@@]5(C)CC[C@H](OC(C)=O)C(C)(C)[C@@H]5CC[C@]43C)[C@@H]12	> 30	28.5	> 30	20.2	> 30	> 30
C=C(C)[C@@H]1CC[C@]2(COC(=O)NCCCCCC)CC[C@]3(C)[C@H](CC[C@@H]4[C@@]5(C)CC[C@H](O)C(C)(C)[C@@H]5CC[C@]43C)[C@@H]12	5.6	7.6				
C=C(C)[C@@H]1CC[C@]2(COC(=O)NCC)CC[C@]3(C)[C@H](CC[C@@H]4[C@@]5(C)CC[C@H](OC(=O)C(N)=O)C(C)(C)[C@@H]5CC[C@]43C)[C@@H]12	11.4	10	15.3	11.2	13.7	14.1
C=C(C)[C@@H]1CC[C@]2(COC(=O)NCCCC)CC[C@]3(C)[C@H](CC[C@@H]4[C@@]5(C)CC[C@H](OC(=O)C(N)=O)C(C)(C)[C@@H]5CC[C@]43C)[C@@H]12	7.9	6.4	10.1	10	9.1	11.2
C=C(C)[C@@H]1CC[C@]2(COC(=O)NCCCCCC)CC[C@]3(C)[C@H](CC[C@@H]4[C@@]5(C)CC[C@H](OC(=O)C(N)=O)C(C)(C)[C@@H]5CC[C@]43C)[C@@H]12	6.5	2	7.3	5.6	7.4	10.1
C=C(C)[C@@H]1CC[C@]2(COC(=O)NCCC)CC[C@]3(C)[C@H](CC[C@@H]4[C@@]5(C)CC[C@H](OC(=O)C(N)=O)C(C)(C)[C@@H]5CC[C@]43C)[C@@H]12	9.9	7	12.8	12.5	10.5	12.8
C=C(C)[C@@H]1CC[C@]2(COC(=O)Nc3ccccc3)CC[C@]3(C)[C@H](CC[C@@H]4[C@@]5(C)CC[C@H](OC(=O)C(N)=O)C(C)(C)[C@@H]5CC[C@]43C)[C@@H]12	15.3	17.3	21.4	17.6	20.4	10.5
C=C(C)[C@@H]1CC[C@]2(COC(C)=O)CC[C@]3(C)[C@H](CC[C@@H]4[C@@]5(C)CC[C@H](OC(C)=O)C(C)(C)[C@@H]5CC[C@]43C)[C@@H]12 [BETULIN DIACETATE]		20.3	25.7		21.5	> 30
C=C(C)[C@@H]1CC[C@]2(C(=O)O)CC[C@]3(C)[C@H](CC[C@@H]4[C@@]5(C)CC[C@H](O)C(C)(C)[C@@H]5CC[C@]43C)[C@@H]12 [BETULINIC ACID]						8.8
C=C(C)[C@@H]1CC[C@]2(CO)CC[C@]3(C)[C@H](CC[C@@H]4[C@@]5(C)CC[C@H](O)C(C)(C)[C@@H]5CC[C@]43C)[C@@H]12 [BETULIN]			> 30			> 30
